Test results as given in patent publication US10500198B2, “Bis-benzylidine piperidone proteasome inhibitor with anticancer activity” (The Johns Hopkins University, priority 2013, dated 2019).

Legend:
[1] = tested on: U266 cells; assay: Active caspase-3 by FACS; assay type: cell-based; details: 0.5 μM, 8 h
Method: U266 cells were treated with RA195 (0.5 μM) and Bz(0.5 μM) for the period of 8 h. Cells were stained for PE-conjugated Caspase-3 antibody and measured active caspase-3 by FACS.

[2] = tested on: PAO3C cells; assay: Immunoblot of PAO3C pancreatic cell lysates; assay type: cell-based; details: 1 uM
Method: Cell lysate was subjected to immunoblot and probed for anti UB antibody. For Bax proteins levels cells were treated for 24 hr. Actin used as […].

[3] = tested on: purified recombinant UCH37 (with or without RPN13) or purified RP; assay: Ub-AMC hydrolysis assay; assay type: biochemical
Method: FIGS. 1 A-D show percent cell viability of RPMI-8226, ANBL6, and their respective in vitro selected bortezomib-resistant cell lines RPMI-8226-V10R and ANBL6-V10R as a function of 48 hr treatment with the indicated compounds. FIGS. 1 E-H show percent cell viability of indicated MM cell lines as a function of 48 hr treatment with the indicated compounds. […] Actin was used as a loading control. […] In FIG. 9C-E, purified 20S proteasomes were treated for 30 min with or without compounds (1 μM) prior to the addition of the specific fluorogenic substrate for chymotryptic (9C), tryptic (9D) or PGPH (9E) hydrolytic proteasome capacities. Mean±SD fluorescence associated with AMC released from the substrate was measured at 45 min. […] DMSO was added to all samples to a final concentration of 0.1% (upper panel). The effect of DMSO is highlighted by including ubiquitin—AMC (0.5 μM) hydrolysis with 2 nM UCH37 lacking DMSO (orange, bottom panel). In FIG. 9H, purified 19S RP (500 nM) in buffer was treated with corresponding compounds 30 min at 37° C. and AMC cleavage was measured with a fluorometer for 20 min. Ubal was used as a positive control.
Reaction mixtures contained 500 nM of the purified 19S RP (R&D Systems) in 19S enzyme assay buffer and 1 μM Ub-AMC. Release of free AMC by the enzyme reaction was determined by measuring its fluorescence at 380 nm (excitation) and 440 nm (emission). […]

[4] = Pharmacokinetic measurements, plasma; assay type: in vivo, mouse; details: 10 mg/kg i.p., BALB/c mice
Method: Tissue was harvested at 48 hr after single-dose intraperitoneal administration in non-tumor bearing mice. Blood was collected by cardiac puncture under anesthesia into heparinized syringes and centrifuged to obtain plasma. Tissues were rapidly dissected and snap frozen in liquid nitrogen. Samples were stored frozen at −70° C. until analysis. […] Tissue homogenates were prepared at a concentration of 200 mg/mL in PBS and further diluted 1:10 in mouse plasma before extraction using acetonitrile containing temazepam (100 ng/mL). Separation was achieved on Waters X-Terra™ C18 (50 mm×2.1 mm i.d., 3 μm) at room temperature using isocratic elution with acetonitrile/water mobile phase (70:30, v/v) containing 0.1% formic acid at a flow rate of 0.2 mL/min. […] Samples were quantitated over the assay range of 10 to 1000 ng/mL or 0.6 to 60 μg/g. […] Cmax and Tmax were the observed values from the mean data. The AUClast was calculated using the log-linear trapezoidal rule to the end of sample collection (AUClast) and extrapolated to infinity (AUC0-∞) by dividing the last quantifiable concentration by the terminal disposition rate constant (λz), which was determined from the slope of the terminal phase of the concentration-time profile. The half-life (T1/2) was determined by dividing 0.693 by λz. Relative bioavailability was calculated as follows: […]

[5] = tested on: p53 in HeLa, CaSki, and SiHa cells; assay: Immunoblot for p53 in cervical cancer cells; assay type: cell-based; details: 24 hr
[6] = Complete blood counts, blood chemistry and histopathology of healthy Balb/C mice
[7] = healthy Balb/C mice, 3 doses 40 mg/kg p.o. every third day, mean ± SD, n = 3

Structure (SMILES): Cl.NCCCC[C@H](NC(=O)OCC1c2ccccc2-c2ccccc21)C(=O)N1C/C(=C\c2ccc(Cl)c(Cl)c2)C(=O)/C(=C/c2ccc(Cl)c(Cl)c2)C1 [RA195]
- active caspase-3 [1]: caused an increase in caspase-3 expression
- Poly Ubiquitinated proteins ([2]; 12 h): causes accumulation of Poly Ubiquitinated proteins
- apoptotic protein Bax ([2]; 24 hr): elevation of apoptotic protein Bax

Structure (SMILES): Cl.N[C@@H](Cc1ccccc1)C(=O)N1CC(=Cc2ccc(Cl)c(Cl)c2)C(=O)C(=Cc2ccc(Cl)c(Cl)c2)C1 [RA190, 3,5-bis(3,4-dichlorobenzylidene)-1-(S-2-amino-3-phenyl)-piperidin-4-one-HCl salt]
- degradation of Ub-AMC [3]: minimally affected
- AUC [4]: 4393 ng·h/mL
- C1/F [4]: 38.3 mL/min/kg
- Cmax [4]: 808 ng/mL
- T1/2,α (distribution half-life) [4]: 4.2 h
- T1/2,β (terminal half-life) [4]: 25.5 h
- Ud/F [4]: 83.61 L/kg
- p53 levels [5]: elevated p53 levels
- ALBNEW (Albumin) [6, 7]: 3.03 ± 0.05
- ALPNEW (Alkaline Phosphatase) [6, 7]: 84.33 ± 7.57
- ALTNEW (Alanine Aminotransferase) [6, 7]: 39.66 ± 4.04
- AMYL (Amylase) [6, 7]: 743 ± 29.4
- ASTNEW (Aspartate aminotransferase) [6, 7]: 62.66 ± 11.01
- BA(Basophils) [6, 7]: 0.06 ± 0.07
- BUNNEW (Blood Urea Nitrogen) [6, 7]: 20 ± 2.64
- CA (Calcium) [6, 7]: 9 ± 0.2
- CHOL (Cholesterol) [6, 7]: 114 ± 12.12
- CK_NEW (Creatinine Kinase) [6, 7]: 55.66 ± 25.48
- CREAT (Creatinine) [6, 7]: 0.36 ± 0.05
- EO (Eosinophils) [6, 7]: 0.24 ± 0.23
- GGTNEW (Gamma-Glutamyl Transferase) [6, 7]: 4.33 ± 0.57
- GLU (Glucose) [6, 7]: 175.33 ± 20.5
- HCT(Hematocrit) [6, 7]: 55.66 ± 1.70
- HDLNEW (High Density Lipoprotein) [6, 7]: 49 ± 5.29
- Hb (Hemoglobin) [6, 7]: 14.63 ± 0.15
- K (Potassium) [6, 7]: 6.05 ± 0.21
- LDH (lactate Dehydrogenase) [6, 7]: 160 ± 37.51
- LY(Lymphocytes) [6, 7]: 4.78 ± 1.89
- MCH (Mean corpuscular hemoglobin) [6, 7]: 14.10 ± 0.2
- MCHC (mean corpuscular hemoglobin concentration) [6, 7]: 26.33 ± 0.55
- MCV (Mean corpuscular Volume) [6, 7]: 53.60 ± 0.26
- MO(Monocytes) [6, 7]: 0.34 ± 0.28
- MPV (Mean Platelet Volume) [6, 7]: 5.06 ± 0.37
- NE(Neutrophils) [6, 7]: 2.43 ± 0.94
- Na (Sodium) [6, 7]: 147.5 ± 0.70
- PLT (Platelet) [6, 7]: 533 ± 61.65
- RBC (red Blood Cells) [6, 7]: 10.38 ± 0.26
- RDW (Red Blood Cell Distribution Width) [6, 7]: 17.23 ± 0.30
- TBIL1 (Total bilirubin) [6, 7]: 0.26 ± 0.05
- TPROT (Total protein) [6, 7]: 5.16 ± 0.05
- TRIG (Triglycerides) [6, 7]: 107.33 ± 22.40
- UA (Uric Acid) [6, 7]: 1.5 ± 0.26
- WBC(White Blood Cells) [6, 7]: 7.88 ± 3.42
- blood chemistry and hematologic panels versus vehicle ([6]; three doses of 40 mg/kg p.o. every third day, euthanized on day 12): No significant difference
